This passage reports Kd results from PMC2954055 (Journal of immunology (Baltimore, Md. : 1950), 2009).

In the test the target is BRS peptide (biotinylated peptide consisting of just the BRS of CD3 ε) (Mus musculus, UniProt P22646). Kind of test: solid-phase ELISA, biotinylated peptide, streptavidin-HRP. Format: binding. The following applies: PBS, room temperature, data not shown. (In general: ELISA stands for enzyme-linked immunosorbent assay.)

One may read the Kd as the equilibrium constant for the complex coming apart. A lower Kd goes with higher affinity. PI(4)P displayed an equilibrium dissociation constant (Kd) (20/80 PI(4)P/PC coated on plate) of roughly 40 nM.

With PI(4,5)P2, the Kd (20/80 PI(4,5)P2/PC coated on plate) was roughly 40 nM.
